Results published in patent publication US7811577B2 (priority 2004, dated 2010).
“Also recorded” adds a separate entry of the source. Like-named read-outs stand apart in the source and are kept apart here. Numbered stars: 1 amine (or outer) side, 2 acyl side, 3 side chain; on linkers, the order of the positions; unused ones are H or OH. Bridge positions count the residues as written; N and C are the ends. Square brackets hold non-standard residues; d marks the D form. Ends that are not written are not given here. I, II: the chains in the order shown. * marks the point of attachment. Biotin = O=C1N[C@H]2[C@H](CS[C@H]2CCCCC(=O)*)N1; Ttds = O=C(CCC(=O)[*:2])NCCCOCCOCCOCCCN[*:1]; Acm = CC(=O)NC*

Legend:
HIV-1 HXB2 = conditions: for anti-viral activity against HIV-1 HXB2, in words: single-cycle/single cell infectivity assay
[1] = tested on: D5 IgG binding to biotinylated 5-Helix; assay: Biotinylated 5-Helix/D5 IgG interaction (competition) assay, AlphaScreen
Text: The instrument records these emissions.
(§1) This test determines whether the covalently-stabilized, homotrimeric or heterotrimeric CC-chimeric N-peptides can preserve the structure of the internal, N-helix coiled-coil of gp41.

[2] = Thermal denaturation (CD) in 2M guanidinium chloride; conditions: for melting temperature / midpoint of thermal denaturation: in the presence of 2M guanidinium chloride
Experimental: The stability of SZN17 was compared with that of IZN17 using thermal denaturation analysis performed in the presence of 2M guanidine hydrochloride (GdnHCl).

[3] = Circular dichroism spectroscopy and thermal denaturation without denaturant; assay type: physicochemical; conditions: for melting point (thermal denaturation): no denaturant
Experimental: The IZ-like scaffold in CCI10N17 (SEQ ID NO:20) comprises only the ten COOH-terminal residues of the “IZ” scaffold, with addition of the covalent trimerizing unit (CCGG (SEQ ID NO:28)) at the NH2-terminus of the peptide. The non-covalently-stabilized CCI10N17 coiled-coil (i.e., the coiled-coil formed under non-oxidizing conditions) was dissolved at neutral pH, and its secondary structure content was determined by circular dichroism spectroscopy (CD).
In order to understand the role of the covalent trimerizing unit (CCGG; SEQ ID NO:28), the CCI10N17 peptide was dissolved to permit air oxidation under the same conditions as previously shown for CCIZN17, to generate covalently-stabilized coiled-coil molecules, (CCI10N17)3. […] The trimer (CCI10N17)3 was analyzed by CD and denaturation studies for analysis of both its secondary structure content and stability. The helical content of this molecule was only 85% with a melting curve showing a low cooperatively profile and a low melting point of about 60° C.

HIV-1 89.6 = assay type: cell-based
[4] = tested on: D5 IgG binding to biotinylated-IZN17; assay: Biotinylated-IZN17/D5 IgG interaction assay, AlphaScreen
Text: The instrument records these emissions.
as §1

[5] = tested on: D5 IgG / biotinylated-IZN17; assay: IC50 (nM)
Text: Table printed on a drawing sheet, FIG. 6
Head of the field: IC50 (nM)
Wildtype IZN17 peptide was included as a positive control, previously shown to inhibit D5 binding in this assay.
First copying reader's note: The table stands beside a dose-response plot (Average Alpha Counts vs [Peptide]), which is not copied.

[6] = tested on: D5-IgG binding to biotinylated IQN17; assay: Competition of D5-IgG binding to biotinylated IQN17, AlphaScreen
[7] = non-covalently-stabilized coiled-coil, neutral pH, 15 μM

Molecule: (CCIZN11IZ)3: covalent disulfide trimer of CCIZN11IZ (CCGGIKKEIEAIKKEQEAIKKKIEAIEKLLQLTVWGIKQIKKEIEAI; also: disulfide-linked homotrimer)
- IC50 (HIV-1 HXB2; read-out: IC50 against HIV-1 HXB2, single-cycle infectivity assay, HXB2): 0.3 nM
- D5 IgG binding in bio-5-Helix/D5 IgG interaction assay, in words [1]: binds D5 IgG

Molecule: (CCS10N17)3: covalent disulfide trimer of CCS10N17 (CCGGIEKKIEAIEKLLQLTVWGIKQLQARIL; also: disulfide-linked homotrimer)
- anti-viral activity against HIV-1 HXB2, in words (HIV-1 HXB2): much lower potencies

Molecule: (CCS17N17)3: covalent disulfide trimer of CCS17N17 (CCGGIEKKIEAIEKKIEAIEKLLQLTVWGIKQLQARIL; also: disulfide-linked homotrimer)
- melting temperature / midpoint of thermal denaturation [2]: above 90 °C

Molecule: Ac-IKKEIEAIKKEQEAIKKKIEAIEKLLQLTVWGIKQLQARIL-NH2 [IZN17, reference compound]
- IC50 (HIV-1 HXB2; HXB2): 1.7 nM
- helical content by circular dichroism [3, 7]: fully helical
- Tm (2M GdnHCl), midpoint of thermal denaturation [2]: 61.5 °C
- melting temperature / midpoint of thermal denaturation [2]: 61.5 °C
- anti-viral activity against HIV isolate 89.6, in words (HIV-1 89.6): completely resistant towards IZN17
- Anti-viral activity, IC50 (HIV-1 89.6; HIV strain 89.6): No
- IC50 (HIV-1 BaL; BaL): 3.2 nM

Molecule: Ac-LLQLTVWGIKQLQARILAIKKEIEAIKKEQEAIKKKIEAI-NH2 (C-terminus assumed) [N17IZ]
- IC50 (HIV-1 HXB2; HXB2): 800 nM

Molecule: Biotin-GGIKKEIEAIKKEQEAIKKKIEAIEKEIEAQQHLLQLTVWGIKQLQARIL-NH2 [Biotin-IZN23]
- IC50 (HIV-1 HXB2; HXB2): 2.17 nM

Molecule: CCGGIEKKIEEIEKKIEEIEKKIEEIEKLLQLTVWGIKQLQARIL [CCEZN17]
- anti-viral activity against HIV-1 HXB2, in words (HIV-1 HXB2): lack of anti-viral activity
- D5 IgG binding in bio-5-Helix/D5 IgG interaction assay, in words [1]: interact with D5 IgG
- D5 IgG binding in bio-IZN17/D5 IgG interaction assay, in words [4]: interact with D5 IgG

Molecule: CCGGIKKEIEAIKKEQEAIKKKIEAIEKLLQLTVWGIKALAAAIA [CCIZN17Ala4]
- anti-viral activity against HIV-1 HXB2, in words (HIV-1 HXB2): retain anti-viral activity

Molecule: CCGGIKKKIEAIEKLLQLTVWGIKQLQARIL [CCI10N17, shortened IZ scaffold]
- anti-viral activity against HIV-1 HXB2, in words (HIV-1 HXB2): less potent anti-virals
- helical content by circular dichroism [3, 7]: 61%

Molecule: I: Ac-CCGGIKKKIEAIEKLLQLTVWGIKQLQARIL-NH2 / II: Ac-CCGGIKKKIEAIEKLLQLTVWGIKQLQARIL-NH2 / III: Ac-CCGGIKKKIEAIEKLLQLTVWGIKQLQARIL-NH2 (disulfide I:1-III:2, I:2-II:2, II:1-III:1; C-terminus assumed) [(CCI10N17)3]
- fold less potent (IC50) than (CCIZN17)3 (HIV-1 HXB2): approximately 150 fold
- IC50 (HIV-1 HXB2; HXB2): 24 nM
- fold reduction in anti-viral activity relative to IZN17 (HIV-1 HXB2; HXB2): approximately 10 fold
- anti-viral activity against HIV-1 HXB2, in words (HIV-1 HXB2): less potent in anti-viral activity assays
- helical content by circular dichroism [3]: 85%
- melting point (thermal denaturation) [3]: about 60 °C
- melting point (thermal denaturation) ([3]; listed as (CC110N17)3): 60 °C
- D5 IgG binding in bio-5-Helix/D5 IgG interaction assay, in words [1]: competes for binding of D5 IgG to Biotin-5-Helix
- D5 IgG binding in bio-IZN17/D5 IgG interaction assay, in words [4]: somewhat less effective than 112N7; also recorded: clearly inhibits

Molecule: IEKKIEAIEKKIEAIEKKIEAIEKLLQLTVWGIKQLQARIL [SZN17]
- IC50 (HIV-1 HXB2; read-out: IC50 in single-cell infectivity assay, against HIV BXB2 (so in the source), unit inferred): 1.5 nM
- melting temperature / midpoint of thermal denaturation [2]: > 90 °C

Molecule: IEKKIEEIEKKIEEIEKKIEEIEKLLQLTVWGIKQLQARIL [EZN17, EZ scaffold fused to N17]
- IC50 [5]: 18.3 nM

Molecule: IEKKIEEIEKKIEEIEKKIEEIEKLLQLTVWGIKQLQARIL [EZN17]
- helical content by circular dichroism [3]: fully helical
- D5 IgG binding in bio-5-Helix/D5 IgG interaction assay, in words [1]: interact with D5 IgG
- D5 IgG binding in bio-IZN17/D5 IgG interaction assay, in words [4]: strongly binds to D5 IgG; also recorded: interact with D5 IgG; also recorded: affinity comparable to IZN17

Molecule: IKKEIEAIKKEQEAIKKKIEAIEKLLQLTVWGIKQLQARIa (Ac-IKKEIEAIKKEQEAIKKKIEAIEKLLQLTVWGIKQLQARIA-NH2; not fully specified (residue 41)) [IZN17A17]
- Tm (2M GdnHCl), midpoint of thermal denaturation [2]: 60.6 °C

Molecule: IKKEIEAIKKEQEAIKKKIEAIEKLLQLTVWGIKQLQAaIL (Ac-IKKEIEAIKKEQEAIKKKIEAIEKLLQLTVWGIKQLQAAIL-NH2; not fully specified (residue 38); printed as IKKEIEAIKKEQEAIKKKIEAIEKLLQLTVWGIKQLQAaIL) [IZN17A15]
- Tm (2M GdnHCl), midpoint of thermal denaturation [2]: 77.2 °C

Molecule: IKKEIEAIKKEQEAIKKKIEAIEKLLQLTVWGIKaLQARIL (Ac-IKKEIEAIKKEQEAIKKKIEAIEKLLQLTVWGIKALQARIL-NH2; not fully specified (residue 35); printed as IKKEIEAIKKEQEAIKKKIEAIEKLLQLTVWGIKaLQARIL) [IZN17A11]
- Tm (2M GdnHCl), midpoint of thermal denaturation [2]: 66.0 °C

Molecule: IKKEIEAIKKEQEAIKKKIEAIEKLLQLTVWGIaQLQARIL (Ac-IKKEIEAIKKEQEAIKKKIEAIEKLLQLTVWGIAQLQARIL-NH2) [IZN17A10]
- Tm (2M GdnHCl), midpoint of thermal denaturation [2]: 68.1 °C
- competition of D5-IgG binding to biotinylated IQN17, in words [6]: completely abolish binding of D5

Molecule: IKKEIEAIKKEQEAIKKKIEAIEKLLQLTVaGIKQLQARIL (Ac-IKKEIEAIKKEQEAIKKKIEAIEKLLQLTVAGIKQLQARIL-NH2) [IZN17A7]
- Tm (2M GdnHCl), midpoint of thermal denaturation [2]: 61.4 °C
- competition of D5-IgG binding to biotinylated IQN17, in words [6]: completely abolish binding of D5

Molecule: IKKEIEAIKKEQEAIKKKIEAIEKLLQLTaWGIKQLQARIL (Ac-IKKEIEAIKKEQEAIKKKIEAIEKLLQLTAWGIKQLQARIL-NH2) [IZN17A6]
- Tm (2M GdnHCl), midpoint of thermal denaturation [2]: 56.4 °C

Molecule: IKKEIEAIKKEQEAIKKKIEAIEKLLQaTVWGIKQLQARIL (Ac-IKKEIEAIKKEQEAIKKKIEAIEKLLQATVWGIKQLQARIL-NH2) [IZN17A4]
- Tm (2M GdnHCl), midpoint of thermal denaturation [2]: 58.2 °C
- competition of D5-IgG binding to biotinylated IQN17, in words [6]: completely abolish binding of D5

Molecule: IKKEIEAIKKEQEAIKKKIEAIEKLLaLTVWGIKQLQARIL (Ac-IKKEIEAIKKEQEAIKKKIEAIEKLLALTVWGIKQLQARIL-NH2) [IZN17A3]
- Tm (2M GdnHCl), midpoint of thermal denaturation [2]: 64.7 °C

Molecule: IKKEIEAIKKEQEAIKKKIEAIEKaLQLTVWGIKQLQARIL (Ac-IKKEIEAIKKEQEAIKKKIEAIEKALQLTVWGIKQLQARIL-NH2) [IZN17A1]
- Tm (2M GdnHCl), midpoint of thermal denaturation [2]: 51.7 °C

Molecule: IKKEIEAIKKEQEATKKKIEAIEKLLQLTVWGIKQLaARIL [IZN17A13]
- Tm (2M GdnHCl), midpoint of thermal denaturation [2]: 71.5 °C

Molecule: IKKKIEAIEKLLQLTVWGIKQLQARILGGCC [I10N17CC]
- anti-viral activity against HIV-1 HXB2, in words (HIV-1 HXB2): less potent anti-virals

Molecule: ac-C(Acm)(thioE10N17)3: one ac-C(Acm)Ttds-CCE10N17 ligated via two thioether bonds to two acetyl-GGGE10N17 chains (peptide 1 {CH2CO}-C(Acm)[Ttds]CCIEEKIEEIEELLQLTVWGIKQLQARIL; peptide 2 Ac-GGGIEEKIEEIEELLQLTVWGIKQLQARIL; thioether I:N-I:3, I:N-I:4; numbers in words are those of the source; also: chain 2 present twice, each copy ligated via thioether to one of the two Cys of chain 1)
- anti-viral activity against HIV-1 HXB2, in words (HIV-1 HXB2): much lower potencies
- melting temperature / midpoint of thermal denaturation [2]: above 90 °C

Molecule: enfuvirtide
- IC50 (HIV-1 HXB2; read-out: Anti-viral activity, IC50, HIV strain HXB2): 5.3 nM
- IC50 (HIV-1 89.6; HIV strain 89.6, read-out: Anti-viral activity, IC50): 29 nM
- IC50 (HIV-1 BaL; read-out: Anti-viral activity, IC50, HIV strain BaL): 2.4 nM

B1: ac-C(Acm)(thioIZN17)3: one ac-C(Acm)Ttds-CCIZN17 chain ligated via two thioether bonds to two acetyl-GGGIZN17 chains (peptide)
peptide 1: CCCGGIKKEIEAIKKEQEAIKKKIEAIEKLLQLTVWGIKQLQARIL
peptide 2: GGGIKKEIEAIKKEQEAIKKKIEAIEKLLQLTVWGIKQLQARIL
- anti-viral activity against HIV-1 HXB2, in words (HIV-1 HXB2): comparable antiviral activity to (CCIZN17)3
